These are literature values, as cited in US8871812B2, “Therapeutic regimen comprising PEG-interferon, ribavirin and VX-950 for the treatment of hepatitis” (priority 2008, dated 2014).

The series relates to HCV. The note with it: monotherapy; cited from earlier work.

With interferon alfa, the “cases with long term remission” value is roughly 25%.
